PubChem BioAssay (NCI)
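Step 1: Grow cells in 96-well plates. Step 2: Expose to compound for 48 hours at 5 concentrations. Step 3: Interpolate endpoints linearly; if unreached, use highest concentration. The concentration for 50% growth inhibition is given as GI50. TGI: concentration producing complete growth inhibition.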

How the values were obtained:
Assay in all cases: NCI-60 cell line screen, 48 h
SF-268 CNS = tested on: SF-268 CNS
TK-10 renal = tested on: TK-10 renal
UACC-62 melanoma = tested on: UACC-62 melanoma
HCT-15 colon = tested on: HCT-15 colon
SW-620 colon = tested on: SW-620 colon
HT29 colon = tested on: HT29 colon
EKVX NSCLC = tested on: EKVX NSCLC
MCF7 breast = tested on: MCF7 breast
DU-145 prostate = tested on: DU-145 prostate
NCI/ADR-RES ovarian = tested on: NCI/ADR-RES ovarian

SMILES	TGI (SF-268 CNS) [µM]	TGI (TK-10 renal) [µM]	TGI (UACC-62 melanoma) [µM]	TGI (HCT-15 colon) [µM]	TGI (SW-620 colon) [µM]	TGI (HT29 colon) [µM]	TGI (EKVX NSCLC) [µM]	GI50 (SF-268 CNS) [µM]	GI50 (TK-10 renal) [µM]	GI50 (MCF7 breast) [µM]	TGI (MCF7 breast) [µM]	GI50 (UACC-62 melanoma) [nM]	GI50 (DU-145 prostate) [µM]	TGI (DU-145 prostate) [µM]	GI50 (HCT-15 colon) [nM]	GI50 (SW-620 colon) [µM]	GI50 (HT29 colon) [µM]	GI50 (EKVX NSCLC) [µM]	GI50 (NCI/ADR-RES ovarian) [µM]	TGI (NCI/ADR-RES ovarian) [µM]
Cn1c(=O)c2/c(n(C)c1=O)=N\C=c1\c(=O)n(C)c(=O)n(C)\c1=N\C=2	> 100	> 100	> 100	> 100	> 100	> 100	> 100	–	–	–	–	–	–	–	–	–	–	–	–	–
Cc1cc(I)cc(CN(C)CCCN2CCN(C)CC2)c1O	> 100	> 100	19.3	59	> 67.7	41.2	> 100	35	61.7	26	82.7	6890	75	> 100	21100	24.2	13.7	79.3	77.8	> 100
CC#Cc1nc(Nc2cc(C)[nH]n2)c2ccccc2n1	20.5	21.2	11.8	12.8	32.4	16.9	–	4.66	3.57	3.32	95.7	2670	7.47	55	2750	4.54	3.71	–	6.63	> 100
O=C(CCc1ccc(O)cc1)N/N=C/c1cc(Br)ccc1O	24.4	> 100	7.02	> 100	> 100	99.4	–	2.23	7.35	3.31	90.2	2440	3.4	> 100	2000	3.83	23.7	–	2.34	> 100
CS(=O)(=O)N(c1cc(-c2ccc3ncnc(Nc4cccc(Cl)c4)c3c2)cnc1Cl)S(C)(=O)=O	12.7	0.985	2.21	6.99	13.4	58.8	2.25	0.49	0.145	0.23	9.69	312	0.508	14.1	403	0.742	0.364	0.357	1.5	12.4
Cn1cc(C2=C(N3CCOCC3)C(=O)NC2=O)c2ccccc21	> 25	> 25	> 25	> 25	> 25	> 25	–	> 25	> 25	> 25	> 25	> 25000	> 25	> 25	> 25000	> 25	> 25	–	> 25	> 25
CCCCCCCCCCCCCCCC1=NC(C)(C)CN1C(C)C	2.79	2.74	3.14	2.79	2.85	–	4.24	1.47	1.44	1.55	3.01	1670	1.56	2.9	1470	1.52	–	1.74	1.78	4.33
Brc1cc2c(cc1Br)CN(c1ccccc1)C2	> 100	> 100	> 100	> 100	> 100	> 100	> 100	–	–	–	–	–	–	–	–	–	–	–	–	–
C[C@]12CCC(=O)C=C1CC[C@@H]1C2CC[C@]2(C)c3nn(-c4ccccc4)nc3CC12 (stereo not given in full)	> 100	> 100	> 100	> 100	> 100	> 100	> 100	–	–	–	–	–	–	–	–	–	–	–	–	–
COc1cccc2c1n([O-])c1cccc(OC)c1[n+]2=O	35.3	> 100	27.4	> 100	21.7	–	37	6.71	24.3	3.15	25.6	9220	7.97	> 100	4950	4.91	–	7.26	3.81	22.7
CN(C)CC/C(=N\Nc1ccc(Cl)cc1Cl)c1ccccc1	–	28.3	27.7	24.9	29.5	28.9	43.1	–	–	–	–	–	–	–	–	–	–	–	–	–
NNC(=O)C(=O)N/N=C(\CCC(=O)Nc1ccc(Cl)cc1)Cc1nc2ccccc2s1	> 100	> 100	54.3	> 100	> 100	> 100	> 100	–	–	–	–	–	–	–	–	–	–	–	–	–
Cc1cccc2c(O)cc(=O)oc12	> 100	> 100	> 100	–	> 100	> 100	> 100	–	–	–	–	–	–	–	–	–	–	–	–	–
O=S1Nc2c(Cl)cc(Cl)c(Cl)c2S1 (stereo not given)	> 100	> 100	> 100	> 100	21.1	> 100	> 100	–	–	–	–	–	–	–	–	–	–	–	–	–
CCN(Cc1c(Cl)cccc1Cl)c1ccc(CO)c(Cl)c1	28.8	0.0592	0.741	23.5	17	15.3	–	15	< 0.0238	0.146	13.4	40.6	14.4	27.9	10400	0.549	2.43	–	11.8	27.3
O=C1C(Cl)=C(Nc2cccc(C(F)(F)F)c2)C(=O)N1Cc1ccc(Cl)cc1	14.8	19.3	1.26	12.5	16.9	24.9	–	0.312	1.08	–	4.82	–	1.13	7.92	166	0.0609	0.595	–	< 0.0431	12.3
O=NN(CCCl)C(=O)NC1CCC(CC2CCC(NC(=O)N(CCCl)N=O)CC2)CC1 (stereo not given)	> 52.4	> 100	–	> 76.9	> 51.3	> 100	> 100	–	–	–	–	–	–	–	–	–	–	–	–	77.9
OCCN1CCN(CC/C=C2/c3ccccc3Sc3ccc(Cl)cc32)CC1	28.3	28.8	6.78	26.2	24.6	6.9	31.3	–	–	–	–	–	–	–	–	–	–	–	–	–
